Each compound was assayed against T1, DNA primase (Homo sapiens, UniProt P49642+P49643) (assay: Primase activity assay (incorporation of radioactive dATP on poly(dT) template)). Settings: approximate concentration at which 50% of the primase enzyme activity was inhibited; determined using the methods described herein; read-out: IC50 (primase-inhibiting properties).
T1 construct: using a nuclear extract comprising primase activity, as described above; endogenous in cells; host or cells: nuclear extract
T1 sequence (P49642 whole entry): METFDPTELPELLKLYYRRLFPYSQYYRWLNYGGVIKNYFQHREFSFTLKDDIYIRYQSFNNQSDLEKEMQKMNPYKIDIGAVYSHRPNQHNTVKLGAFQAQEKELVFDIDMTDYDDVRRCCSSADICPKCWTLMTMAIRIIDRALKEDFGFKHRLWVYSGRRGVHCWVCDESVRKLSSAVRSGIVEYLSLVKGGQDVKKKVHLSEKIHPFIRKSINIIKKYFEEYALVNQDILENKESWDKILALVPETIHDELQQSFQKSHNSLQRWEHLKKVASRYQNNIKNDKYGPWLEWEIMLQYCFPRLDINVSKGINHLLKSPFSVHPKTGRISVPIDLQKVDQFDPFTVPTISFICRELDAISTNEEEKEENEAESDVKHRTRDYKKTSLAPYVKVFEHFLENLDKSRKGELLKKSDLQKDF
T1 sequence (P49643 whole entry): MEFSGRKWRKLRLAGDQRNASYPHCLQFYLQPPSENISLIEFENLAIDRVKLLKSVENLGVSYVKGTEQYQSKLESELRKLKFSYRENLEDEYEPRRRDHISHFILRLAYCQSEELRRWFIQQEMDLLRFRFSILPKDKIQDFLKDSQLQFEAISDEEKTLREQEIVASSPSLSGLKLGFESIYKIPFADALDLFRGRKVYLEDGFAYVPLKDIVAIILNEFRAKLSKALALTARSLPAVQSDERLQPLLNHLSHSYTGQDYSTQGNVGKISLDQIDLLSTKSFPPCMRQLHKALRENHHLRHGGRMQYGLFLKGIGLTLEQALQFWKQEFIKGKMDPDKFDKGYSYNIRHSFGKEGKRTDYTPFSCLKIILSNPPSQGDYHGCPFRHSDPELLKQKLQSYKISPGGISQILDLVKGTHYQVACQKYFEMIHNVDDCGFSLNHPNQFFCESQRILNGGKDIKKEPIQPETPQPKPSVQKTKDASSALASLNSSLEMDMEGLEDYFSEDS
T1 sequence (P09884 whole entry partner): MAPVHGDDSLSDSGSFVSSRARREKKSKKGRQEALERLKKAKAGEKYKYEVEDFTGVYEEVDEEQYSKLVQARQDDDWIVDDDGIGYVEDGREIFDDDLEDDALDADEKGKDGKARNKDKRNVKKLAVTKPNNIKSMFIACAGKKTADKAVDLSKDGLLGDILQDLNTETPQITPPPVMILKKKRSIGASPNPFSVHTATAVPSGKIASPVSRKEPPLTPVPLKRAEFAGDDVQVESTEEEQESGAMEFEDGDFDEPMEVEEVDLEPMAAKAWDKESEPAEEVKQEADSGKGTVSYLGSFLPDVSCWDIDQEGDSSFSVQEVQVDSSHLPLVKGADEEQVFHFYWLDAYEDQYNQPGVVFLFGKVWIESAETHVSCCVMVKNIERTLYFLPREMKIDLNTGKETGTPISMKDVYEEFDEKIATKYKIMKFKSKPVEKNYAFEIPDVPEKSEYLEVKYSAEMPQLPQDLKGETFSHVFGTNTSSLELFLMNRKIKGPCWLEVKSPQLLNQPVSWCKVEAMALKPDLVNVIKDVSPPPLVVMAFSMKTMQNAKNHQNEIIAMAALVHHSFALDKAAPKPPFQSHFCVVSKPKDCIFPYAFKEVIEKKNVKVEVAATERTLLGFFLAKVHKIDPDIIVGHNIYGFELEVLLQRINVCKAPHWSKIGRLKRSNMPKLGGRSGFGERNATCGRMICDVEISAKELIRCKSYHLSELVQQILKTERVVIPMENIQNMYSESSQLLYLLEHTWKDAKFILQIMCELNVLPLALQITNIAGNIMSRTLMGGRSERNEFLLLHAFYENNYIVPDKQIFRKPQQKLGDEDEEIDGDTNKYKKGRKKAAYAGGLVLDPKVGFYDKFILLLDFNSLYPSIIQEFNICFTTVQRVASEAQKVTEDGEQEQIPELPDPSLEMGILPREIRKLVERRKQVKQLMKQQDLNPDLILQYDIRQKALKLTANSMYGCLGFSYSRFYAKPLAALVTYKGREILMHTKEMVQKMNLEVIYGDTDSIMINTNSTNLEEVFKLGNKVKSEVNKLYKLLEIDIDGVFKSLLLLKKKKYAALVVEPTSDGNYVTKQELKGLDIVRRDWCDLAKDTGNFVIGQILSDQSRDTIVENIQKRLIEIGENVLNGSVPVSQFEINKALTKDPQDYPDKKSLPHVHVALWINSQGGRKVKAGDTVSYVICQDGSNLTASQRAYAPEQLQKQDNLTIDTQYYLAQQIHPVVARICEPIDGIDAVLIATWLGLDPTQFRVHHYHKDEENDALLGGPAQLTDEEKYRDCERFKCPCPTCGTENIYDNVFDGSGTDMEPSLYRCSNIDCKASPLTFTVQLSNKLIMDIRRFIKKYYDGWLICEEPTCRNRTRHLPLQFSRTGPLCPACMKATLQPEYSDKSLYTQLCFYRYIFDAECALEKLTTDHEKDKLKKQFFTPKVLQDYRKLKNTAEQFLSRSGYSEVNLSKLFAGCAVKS
T1 sequence (Q14181 whole entry partner): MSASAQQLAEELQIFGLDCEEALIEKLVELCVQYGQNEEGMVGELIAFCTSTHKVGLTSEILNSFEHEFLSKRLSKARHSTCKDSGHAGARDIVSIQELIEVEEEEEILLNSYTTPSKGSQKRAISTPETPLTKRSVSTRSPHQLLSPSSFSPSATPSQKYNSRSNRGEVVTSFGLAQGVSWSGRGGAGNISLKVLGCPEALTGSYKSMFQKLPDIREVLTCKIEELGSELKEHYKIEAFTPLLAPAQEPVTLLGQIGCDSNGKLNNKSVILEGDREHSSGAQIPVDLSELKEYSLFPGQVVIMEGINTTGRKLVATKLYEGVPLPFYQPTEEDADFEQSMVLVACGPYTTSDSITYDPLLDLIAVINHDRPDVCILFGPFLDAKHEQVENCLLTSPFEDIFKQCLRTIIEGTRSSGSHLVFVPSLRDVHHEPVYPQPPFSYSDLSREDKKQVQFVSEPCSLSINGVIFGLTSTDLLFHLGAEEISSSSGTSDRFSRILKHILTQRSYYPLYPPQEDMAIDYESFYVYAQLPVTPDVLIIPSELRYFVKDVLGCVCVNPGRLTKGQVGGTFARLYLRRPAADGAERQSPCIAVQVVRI
Assay type: biochemical
Protocol: In the assay, primase was diluted with primase dilution buffer (50% glycerol, 50 mM Tris HCl (pH 8.0) 20 mM KCl, 1 mM EDTA, 1 mM βME) to achieve a selected reaction volume (typically, reactions were carried out in an overall volume of 60 μl). A typical 60 μl reaction volume further included 50 mM Tris HCl (pH 8.0); 20 mM KCl, 200 μg/ml BSA, 4 mM MgCl2, 2 mM fresh DTT, 2 mM rATP, 5 μCi ^32 P (800 Ci/mmol) or 2.5 μCi ^33 P (2,000 Ci/mMol) dATP, 10 μg/ml Poly (dT), and primase and polymerase α.
The recombinant 180 Kd human polymerase ax protein was isolated from a bacculovirally transduced SF9 cell as described in Wang et al. (1995) Methods in Enzymology 262: 77-84. Typically, about 0.05 μg of p180 and about 0.025 μg of a 1:1 mixture of p49/p58 primase subunits were used per reaction.
Several reactions were typically set up in parallel, although a single reaction can also be assessed. For example, a Zymate XP (Zymark Corporation; Hopkinton, Mass.) automated robot using Microlab 2200 (Hamilton; Reno, Nev.) pipeting station to transfer parallel samples to 96 well microtiter plate was used to set up several parallel simultaneous reactions.
Parallel reactions were incubated for 30 minutes at 30° C. 15 μl of each reaction was spotted into one well on a Unifilter plate (Whatman GF/C glass fiber filter bottom), typically using the automated system described. The filters were then air dried. The Unifilter plate was placed onto the vacuum chamber of a dot blot apparatus, and 200 μl of ice cold 5% TCA/20 mM sodium pyrophosphate wash was added to each well, and vacuum applied. Each filter was washed three times. 100 μl of an ice cold 70% ethanol wash was added then added to each well, and vacuum applied. The ethanol wash was repeated, and the filters allowed to air dry. Excess fluid was removed from the bottom of the plate. The bottom of the plate was sealed with a transparent sealer, and 50 μl of Microscint-20 scintillation fluid was added to each well, e.g., using a Biomek1000® (Beckman Instruments; Dallas, Tex.). The top of the plate was sealed with TOPSEAL-S® Microplate Heat Sealing Film and CPM were counted for each well using a topcount microplate scintillation counter (Packard; Downers Grove, Ill.) or Trilux Microbeta 1450 (Wallac; Gaithersburg, Md.).
An assay similar to Example 2 was also developed to measure primase activity. Although the assay is described below with reference to using a nuclear extract as the source for primase activity, one of skill will recognize that the assay can easily be adapted for purified or recombinant primase. Examples 1 and 2 provide a description of the buffers, nuclear extracts, etc.
The reagents were combined into one or more separate reaction mixtures, with the poly dT, nuclear extract, and ^32 dATP being added just before use. The reaction mixtures were incubated for 1 hour at 37° C. The reactions were spotted onto filters on a unifilter plate and treated as described in Example 2.
The primase modulator compounds show in FIG. 1 were determined to modulate primase activity in the assays shown above, using a nuclear extract comprising primase activity, as described above.
For primary screening, compounds were added at the beginning of the reaction with all reagents as described above. Compounds were tested at a concentration of 100 μM. Compounds were tested in duplicate reactions.
This concentration information was used to determine the approximate IC50 for the primase modulating agents described in FIG. 1. The extract/enzyme preparation for primase modulating agents was preincubated with the compound for 30 min at 37° C. prior to addition of the remaining reagents.
The example modulators are primase inhibitors. The IC50 s for the compounds indicated in FIG. 1 was the approximate concentration of the modulator at which 50% of the primase enzyme activity in a reaction mixture was inhibited by the modulator.

Question: How did the IC50 turn out when O=C(Nc1ccccc1Cl)c1csc(-c2cccnc2)n1 [Compound 2] was run?
Answer: The IC50 was roughly 30 µM.

Question: How did the IC50 turn out when O=C(Nc1cccc(C(F)(F)F)c1)c1csc(-c2ccncc2)n1 [Compound 4] was run?
Answer: The IC50 was roughly 37 µM.

Question: O=C(Nc1ccc(C(F)(F)F)cc1)c1csc(-c2ccncc2)n1 [Compound 5] was tested. Which IC50 did it give?
Answer: Its IC50 is roughly 44 µM.

Question: Which IC50 does the source give for O=C(Nc1ccc(Cl)cc1)c1csc(-c2ccncc2)n1 [Compound 6] here?
Answer: The IC50 was roughly 37 µM.

Question: For O=C(Nc1ccc(Br)cc1)c1csc(-c2ccncc2)n1 [Compound 7], which IC50 is on record?
Answer: The IC50 was roughly 63 µM.

Question: O=C(Nc1ccc(F)cc1F)c1csc(-c2ccncc2)n1 [Compound 8] was tested. Which IC50 did it give?
Answer: The IC50 was roughly 19 µM.

Source: patent publication US6274738A, “Carboxamide derivatives having aryl and thiazole rings” (Geron Corporation, priority 1997, dated 2001)
